Reference: patent US20110306579A1, “METHODS OF NEUROPROTECTION USING NEUROPROTECTIVE STEROIDS AND A VITAMIN D” (EMORY UNIVERSITY, priority 2009, published 2011)
Where a name gives a salt, the structure may show the parent alone.

Legend:
[1] = biological target: T1, vitamin D binding protein (DBP) (Homo sapiens, UniProt P02774); details: cited from earlier work
T1 construct: host or cells: serum
T1 sequence (P02774 17-474): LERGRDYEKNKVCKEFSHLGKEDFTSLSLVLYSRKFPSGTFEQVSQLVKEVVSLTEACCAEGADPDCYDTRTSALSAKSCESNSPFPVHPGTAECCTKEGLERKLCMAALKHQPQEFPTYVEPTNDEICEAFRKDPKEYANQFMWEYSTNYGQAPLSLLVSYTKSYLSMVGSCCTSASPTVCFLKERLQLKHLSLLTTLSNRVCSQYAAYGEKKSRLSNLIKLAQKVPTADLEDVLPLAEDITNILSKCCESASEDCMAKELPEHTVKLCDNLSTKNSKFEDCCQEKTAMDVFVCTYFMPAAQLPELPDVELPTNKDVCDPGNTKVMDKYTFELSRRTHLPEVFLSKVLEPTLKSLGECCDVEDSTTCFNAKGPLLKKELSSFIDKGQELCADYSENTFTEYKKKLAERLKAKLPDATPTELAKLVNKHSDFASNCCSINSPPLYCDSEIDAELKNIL

[2] = system: 20-month old Fischer 344 rats; test: Cerebral edema analysis after cortical contusion brain injury; assay type: in vivo, rat; details: 4 mg/kg; for edema compared to subjects treated with vehicle: 24 hours post brain injury; for mean % difference edema: brain tissue 24 hours post brain injury, i.p. at 1 h, s.c. at 6 and 24 h
Procedure: The methodology used is described in VanLandingham et al., Neuropharmacology, 2006, 51, 1078-1085.
Sterile surgical procedures were used to prevent animal infection. Rats (20-month old Fischer 344 rats, which are the “human” equivalent of about 60 years old) were anesthetized and maintained on isoflurane and an equivalent amount of […] and O2 for 3 min prior to surgery. After brain contusion, O2 levels were doubled compared to […] and maintained through the reainder of the surgery procedure. A stereotaxic apparatus was used to stabilize the head in a horizontal position. Core body temperature was monitored and maintained at 37° C. using a Harvard homeothermic blanket (Harvard Apparatus, Holliston, Mass.). There was no direct measure used to deterct brain temperature. Blood oxygen and heart rate were maintained using a SurgiVet monitor (SurgiVet, Waukesha, Wis.) and maintained above 90% and 340 bpm respectively. A midline incision was made and the scalp retracted. A bilateral 6-mm craniotomy was performed with surgical drill centered at 3 mm rostral to bregma. The stainless steel impactor was positioned over the MFC at 3.0 mm A/P and 0.0 M/L. These coordinates represent the MFC as described by Paxinos and Watson (The Rat Brain in Stereotaxic Coordinates, Academic Press, San Diego, 1986). The cortical injury was induced using a pneumatically controlled device (Hoffman et al., J. Neurotrauma, 1994, 11, 417-431). Brain impact duration was 0.5 s. using a 5-mm impactor tip with a velocity set at 2.125 m/s and a cortical depth of 2 mm. Following the contusion, bleeding was halded and fascia and scalp were sutured shut. After surgery, animals were allowed to recover from anesthesia on a homeothermic heating blanket in a holding cage until awake. sham surgeries controlled for anesthesia and stress. All surgical procedures were the same, except that sham rates were not given a craniotomy or cortical injury. Previous studies using craniotomy as a control found no differences between shams with or without this procedure. (Goss et al., Pharmacol. Biochem. Behay. 2003, 76(2), 231-242).
These experimental solutions were then diluted 1:1 with sterile water for a final concentration of HBC of 22.5%.
All injections were done at the same time with brain harvesting at 24 h post-injury. Rats in each group were weightd prior to treatment to ensure proper dosage. The first injection at 1 h after surgery was given intraperitoneally to ensure rapid adsorption. All subsequent injections were made subcutaneously for gradual adsorption at 6 and 24 h. Injection times and neurosteroid doses were based on previous results of neurosteroid treatment (Roof et al., Twenty First Annual Meeting of the Society for Neuroscience, Miami Beach Fla., p. 191 and He et al., Exp. Neurol. 2004, 189, 404-412). The sterioids were dissolved in vehicle (22.5% 2-hydroxypropyl-b-cyclodextrin solution) at 4 mg/kg. The sham group received no treatment and injury control group received vehicle only.
At 24 h after traumatic brain injury flresh brains were extracted from the skull and the dorsal cerebrum was separated along the line of the lateral fissure. Four 3-mm coronal sections were cut rostral to caudal, placed in pre-weighed 1.5 mL tubes and re-weighed (wet weight). Tubes were then left uncapped and placed in a vacuum oven set at 60° C. with an atmospheric pressure of 0.3 for 48 h. Following tube recapping, the tissue samples were again weighed (dry weight). Cerebral edema (% water content) was determined as the difference in wet and dry weights divided by wet weight (Roof and Stein Restor. Neurol. Ncurosci., 1992, 4, 425-427). Edema measures are reflective of the difference inwater content between at the average of the two most rostral (injury region) segments and most caudal (occipital cortex) segments of the dorsal sections of the brain.

[3] = system: 20-month-old male Fischer 344 rats; test: Spontaneous locomotor activity (open field) after TBI; assay type: in vivo, rat; details: 72 hours after injury; normalized to sham
Source text: The animals in this study were separated into two groups, vitamin D normal (D-normal) and vitamin D deficient (D-deficient). […] Animals in the D-deficient group were maintained on the diet for at least 21 days prior to surgery. […] For this same reason the null diet was not altered in any other way, and the rats assigned to the D-deficient group were maintained on it until they were killed for harvesting of brain tissue. Since vitamin D is activated by UVB light (280-315 nm wavelength), the overhead lights were modified to not produce radiation in this range.
Animals dehydrated due to blood loss were given 3 mL of lactated Ringer's solution subcutaneously within 6 hours of injury.
Animals were assigned to D-normal or D-deficicnt groups. […] The same assignment was followed for both 24-hour and 72-hour survival groups. […] All drug treatments were dissolved in vehicle, and injection volume was equally proportional to each animal's weight across all groups. The intact sham (SHAM) groups served to provide baseline data and therefore received no injury or injections.
In addition to molecular measures of inflammatory cytokines, the behavioral effects of the various treatments were examined. Since this study was limited to the short term effects on inflammation, only short-term Spontaneous Locomotor Activity was used.

[4] = system: E18 rat primary cortical neurons; test: Glutamate-induced excitotoxic cell death (LDH release and MTT reduction assays); assay type: cell-based
Source text: Lactate dehydrogenase (LDH) release and 3-(4,5-dimethylthiazol-2-yl)-2,5-diphenyltetrazolium bromide (MTT) reduction assays were used to measure cell death. NeuroPureTM E18 primary rat cortical cells were commercially procured (Catalogue # N200200, Genlantis, San Diego, Calif., USA) as micro-surgically dissected regions from day 18 embryonic Sprague-Dawley rat brain. The tissues were processed for culturing according to manufacturer specifications. Briefly, enzymatic pre-treatment of the tissue was done prior to mechanical dissociation by incubating the tissues in sterile NeuroPapain enzyme solution at 30° C. for 30 minutes. Following incubation, the cells were centrifuged and transferred to fresh plating medium, where they were then dissociated into isolated neurons using a P-1000 pipettor with a sterile 1 ml plastic tip (0.8-1.0 mm diameter opening). The cells were again centrifuged and seeded in multi-well plates pre-coated with poly-D-lysine (0.15 ml/cm^2, 50 μg/ml) and maintained at 37° C. in a humidified 5% CO2 atmosphere. All experiments were performed after 9-10 days in culture. Twenty-four hours before glutamate exposure, cultures were pre-treated with both PROG (Cat. #P3972; Sigma Aldrich, St. Louis, Mo., USA) and VDH(Cat. #D1530; Sigma) separately or in combination with VDH at various concentrations. Stock solutions of PROG and VDH were prepared in dimethylsulfoxide (DMSO; Cat. #D2650; […] Glutamate was diluted in phosphate-buffered saline (PBS, pH 7.4). All reagents were filter sterilized before being added to cultures. At Day 11, cortical neurons in fresh media were separated into five treatment groups: (i) control; (ii) 24 hour treatment with 0.5 μM glutamate (Sribnick E A, et al., (2004) J Neurosci Res 76: 688-696); ([…]) with subsequent exposure to glutamate for 24 hours; (iv) 24 hour pre-treatment with VDH (1, 5, 10, 20, 40, 80, 100 nM) with subsequent exposure to glutamate for 24 hours; (v) 24 hour pre-treatment with different combinations of PROG and […]: 20 μM+VDH: 1, 5, 10, 20, 40, 80, 100 nM) with subsequent exposure to glutamate for 24 hours. Two widely accepted assays (LDH release and MTT reduction assay) for the measurement of cell viability were used. These assays are considered very reliable and reproducible with high predictive validity and are widely used in various pharmacological studies ([…], et al., (2002) Endocrinology 143: 205-212.). The LDH assay was performed as follows. […] LDH activity was measured using a Cytotoxicity Detection Kit (Roche Molecular Biochemicals, Indianapolis, Ind., USA) and quantitated by measuring absorbance at 490 nm. Data were normalized against the amount of LDH activity released from vehicle-treated control cultures receiving no glutamate. Neuronal death was also assessed by MTT [3-(4,5-dimethylthiazol-2-yl)-2,5-diphenyltetrazolium bromide] assay, which is based on the cleavage of the tetrazolium ring of the pale yellow MTT into dark blue formazan crystals by mitochondrial dehydrogenase enzyme in viable cells. These blue formazan crystals accumulate within the cells due to their impermeability to cell membrane, and are then solubilized by adding DMSO. The intensity of blue colored formazan solution is directly proportional to the number of surviving cells. Concentrations were determined by photometric analysis. Briefly, 10 μl of MTT were added per well and incubated at 37° C. for 4 hours until purple precipitate was visible. DMSO (50 μl) was added to solubilize the crystals and the absorbance was read at 570 nm.

[5] = system: E18 rat primary cortical neurons; test: Morphological analysis of cortical cultures (phase contrast); assay type: cell-based; details: glutamate 0.5 μM for 24 h; data not shown
Source text: Changes in the morphology of neurons treated with different drugs in various groups were observed using a phase-contrast microscope (Nikon). Primary cultures were mainly observed for neurite outgrowth, a hallmark feature of healthy cells, and the density of healthy cells in different groups.

MAPK (ERK1/2) = test: MAPK phosphorylation (p-ERK1/2 Western blot) in primary cortical neurons; assay type: cell-based, rat; details: VDH 100 nM, 30-minute treatment
Procedure: PROG and VDH were added to the primary cultures, as described above, for 30 minutes ([…], et al., (2002) Endocrinology 143: 205-212) and the cells were lysed using RIPA lysis buffer kit (sc-24948, Santa Cruz, Calif., USA). Protein was determined in cell lysates by bicinchoninic acid (BCA) protein assay (Cat. # 23225, Pierce, Rockford, Ill., USA). Cell lysates (40 μg protein each sample) were separated under reducing and denaturing conditions by 12.5% acrylamide Criterion gel (BioRad, Hercules, Calif., USA) at 200V for 1 hour and transferred to a polyvinylidene difluoride (PVDF) membrane at 100V for 30 minutes. The non-specific binding sites of the membrane were blocked with 5% non-fat dry milk in PBS-T (phosphate buffered saline containing 0.05% Tween-20). […] Membranes were then incubated in horseradish peroxidase (HRP)-conjugated secondary antibody (Goat anti-rabbit IgG; 074-1506, KPL, Gaithersburg, Md., USA). β-actin was probed as a loading control. Blots were developed using a chemiluminescent substrate (Pierce) for 5 minutes.

[6] = Phase 1 and Phase 2 human trials; cited from earlier work
[7] = system: rat model of peripheral nerve injury; details: 100 IU/kg/day following nerve injury; cited from earlier work

SMILES: C=C1CC[C@H](O)C/C1=C/C=C1\CCC[C@]2(C)[C@@H]([C@H](C)CCCC(C)(C)O)CC[C@@H]12 [Compound 25OHD3, 25-hydroxyvitamin D3]
- fraction of total in serum bound by DBP [1]: about 88%

SMILES: CC(=O)[C@H]1CCC2C3CCC4=C[C@@H](OC(=O)[C@@H](N)C(C)C)CC[C@]4(C)C3CC[C@@]21C (stereo partly drawn) [Compound 31, 3β-L-Valine-progesterone-HCl]
- edema compared to subjects treated with vehicle [2]: decrease in edema
- mean % difference edema [2]: 2.2%

SMILES: CC(C)[C@H](N)C(=O)O[C@@H](C)[C@H]1CCC2C3CCC4=CC(=O)CC[C@]4(C)C3CC[C@@]21C (stereo partly drawn) [Compound 57, 20-S-L-Valine-progesterone HCl salt]
- edema compared to subjects treated with vehicle [2]: decrease in edema
- mean % difference edema [2]: 3.3%

SMILES: CC(=O)[C@H]1CCC2C3CCC4=C/C(=N/OC(=O)[C@@H](N)Cc5c[nH]c6ccccc56)CC[C@]4(C)C3CC[C@@]21C (stereo partly drawn) [Compound 79, O-L-Tryptophan-C3-oxime-progesterone HCl salt]
- edema compared to subjects treated with vehicle [2]: decrease in edema
- mean % difference edema [2]: 1.9%

SMILES: C=C1/C(=C\C=C2/CCC[C@]3(C)[C@@H]([C@H](C)CCCC(C)(C)O)CC[C@@H]23)C[C@@H](O)C[C@@H]1O [VDH, 1,25-dihydroxyvitamin D3]
- spontaneous locomotor activity (total distance, resting, stereotypy, movement time) [3]: little or no benefit
- best (most effective) concentration alone against glutamate-induced neuronal death ([4]; LDH and MTT assays): 0.1 µM
- shape of concentration response curve for neuroprotection against glutamate toxicity ([4]; VDH alone, or PROG 20 μM with VDH 1-100 nM): U-shaped
- neuroprotection against glutamate toxicity compared to vehicle-only group ([4]; VDH higher concentrations (1-10 μM)): did not prevent neuronal loss
- neuroprotection against glutamate toxicity compared to vehicle-only group ([4]; VDH lower concentrations (0.001-0.5 μM), P<0.001): significantly protective
- morphology of neurons (neuronal processes, number of neurons) after glutamate [5]: rescued neurons
- increase in p-ERK1/2 level compared to control group (MAPK (ERK1/2)): 1.7 ×

SMILES: CC(=O)[C@H]1CC[C@H]2[C@@H]3CC[C@H]4C[C@](C)(O)CC[C@]4(C)[C@H]3CC[C@]12C [ganaxolone, 3a-hydroxy-3b-methyl-5a-pregnan-20-one]
- tolerability [6]: well tolerated

SMILES: C=C1CC[C@H](O)C/C1=C/C=C1\CCC[C@]2(C)[C@@H]([C@H](C)/C=C/[C@H](C)C(C)C)CC[C@@H]12 [vitamin D2, ergocalciferol]
- axogenesis and axon diameter [7]: significantly increased axogenesis and axon diameter
